Reference: article PMC3916416, “Recombinant Human Parathyroid Hormone Related Protein 1-34 and 1-84 and Their Roles in Osteoporosis Treatment” (PLoS ONE, 2014)

Assays:
[1] = tested on: Cbfa-1, ALP, Col I, OCN mRNA in primary BMC; experiment: Real-time RT-PCR of osteogenic genes in 14-day primary BMC cultures; assay type: cell-based, rat; conditions: 10^-7 M, ratio to GAPDH, compared with control cultures, three trials
Description: (§1) Tibiae and femurs of 200-g male Wistar rats were removed under aseptic conditions, and bone marrow cells (BMC) were flushed out with Dulbecco's modified Eagle's minimal essential medium containing 10% fetal calf serum, 50 µg/ml ascorbic acid, 10 mM β-glycerophosphate, and 10^−8 M dexamethasone. Cells were dispersed by repeated pipetting, and a single-cell suspension was achieved by forcefully expelling the cells through a 22-gauge syringe needle. 10^6 total bone marrow cells were cultured in 36-cm^2 Petri dishes in 5 ml of the above-mentioned medium. All the dishes were assigned to three different groups. Each of the group treated with vehicle (Control), 10^−7 M hPTHrP1-34 or 10^−7 M hPTHrP1-84. The medium was changed every 4 days. The non-adherent cells containing hematopoietic elements were removed by pipetting gently when the medium was changed for the first time. Only monocytic cells remained. Cultures were maintained for 12–18 days. At the end of the culture period cells were stained cytochemically or RNA was extracted from these cells for RT-PCR as described below.
RNA was isolated from 14-day cultured cells using Trizol reagent (Invitrogen) according to the manufacturer's protocol. Femurs were isolated and weighted. Homogenize tissue samples in 1 ml of TRIzol reagent per 50–100 mg of tissue using mortar and pestle with liquid nitrogen. […]

[2] = Serum PTHrP analyses (ELISA) after subcutaneous injection; assay type: in vivo, mouse; conditions: OVX mice, 10 nmol/kg s.c.
Description: The OVX mice were injected with vehicle or 10 nmol/kg hPTHrP1-34 or 10 nmol/kg hPTHrP1-84 subcutaneously. Subsequently, blood samples were drawn at 15 and 30 minutes, 1, 2, 4 and 6 hours after the injections. Serum concentrations of hPTHrP1-34 or hPTHrP1-84 were measured by enzyme linked immunosorbent assay (ELISA) that used Phoenix Pharmaceuticals PTHrP(1-34)- EIA Kit (Phoenix Pharmaceuticals, USA). Procedures were performed according to the instructions of the kit.

[3] = tested on: primary bone marrow cells (BMC); experiment: Primary bone marrow cell culture, cytochemical colony (CFU-f) staining; assay type: cell-based, rat; conditions: 10^-7 M on day 0, 18-day primary BMC cultures, compared with control cultures; triplicate determinations, three experiments
Description: as §1, with “below. The cells from 18-day primary BMC cultures were washed with PBS and fixed by the addition of cold ethanol. […] The numbers of colonies were counted macroscopically by hand. […]” for “below.”

[4] = tested on: Cbfa1, ALP, Col I, OCN, RANKL, OPG mRNA in long bone; experiment: Real-time RT-PCR of long bone extracts of OVX mice; assay type: in vivo, mouse; conditions: 10 nmol/kg s.c. daily for 4 weeks, n = 6
Description: (§2) Twenty four female C57BL/6J mice, 8 weeks age, were assigned to four different groups, with six mice per group. All mice were anesthetized with chloral hydrate (0.4 ml/100 g body weight) and subjected to surgery on day 0. Sham surgery was performed on the Sham group (Sham) by identifying the bilateral ovaries and ovariectomy (OVX) was performed on the other groups by removing the bilateral ovaries. After surgery, all mice were maintained in a virus- and parasite-free barrier facility and exposed to a 12-h/12-h light/dark cycle under standard conditions in the Medical Experimental Animal Center of Nanjing Medical University for 9 weeks. HPTHrP1–34 was subcutaneously administered at a dose of 10 nmol/kg (40 µg/kg) body weight everyday for the last 4 weeks. HPTHrP1–84 was subcutaneously administered at a dose of 10 nmol/kg (100 µg/kg) body weight everyday for the last 4 weeks. Each of the mice received vehicle (vehicle-treated sham-operated mice and vehicle-treated OVX mice), hPTHrP1-34 (hPTHrP1-34-treated OVX mice) or hPTHrP1-84 (hPTHrP1-84-treated OVX mice). At the end of experiments, all mice were sacrificed by exsanguination under chloral hydrate anesthesia and blood were collected for serum calcium, phosphorus and ALP analyses, bones and kidneys were then removed for the analyses described below.
RNA was isolated from 14-day cultured cells using Trizol reagent (Invitrogen) according to the manufacturer's protocol. Femurs were isolated and weighted. Homogenize tissue samples in 1 ml of TRIzol reagent per 50–100 mg of tissue using mortar and pestle with liquid nitrogen. After homogenization, remove insoluble material from the homogenate by centrifuging at 12,000 RPM for 10 min at 4°C. Transfer the top layer solution into a new tube. RNA of this solution was precipitated with isopropanol, washed with 75% ethanol and dissolved with DEPC water. Reverse transcription reactions were performed using the SuperScript First-Strand Synthesis System (Invitrogen) as previously described. […]

[5] = tested on: OVX mice (osteoporosis model); experiment: Osteoclastic bone resorption (TRAP staining) in OVX mice; assay type: in vivo, mouse; conditions: 10 nmol/kg s.c. daily for 4 weeks, vertebrae, compared with vehicle-treated OVX mice, n = 6
Description: as §2, with “At the end of experiments, all mice were sacrificed by exsanguination under chloral hydrate anesthesia and blood were collected for serum calcium, phosphorus and ALP analyses, bones and kidneys were then removed for the analyses described below.” left out
(§3) After HE staining or histochemical staining of sections from six mice of each genotype, images of fields were photographed with a Sony digital camera. All images were digitally recorded using a rectangular template, and recordings were processed and analyzed using Northern Eclipse image analysis software as described, [26], [28].

[6] = Serum calcium, phosphorus and ALP in OVX mice; assay type: in vivo, mouse; conditions: 10 nmol/kg s.c. daily for 4 weeks, versus vehicle-treated OVX mice, n = 6
Description: as §2, with “At the end of experiments, all mice were sacrificed by exsanguination under chloral hydrate anesthesia and blood were collected for serum calcium, phosphorus and ALP analyses, bones and kidneys were then removed for the analyses described below.” left out
Serum calcium, phosphorus and ALP were determined at 4 weeks after the administration of drugs by autoanalyzer (Beckman Synchron 67; Beckman Instruments).

[7] = tested on: OVX mice (osteoporosis model); experiment: Bone volume of vertebrae in OVX mice (radiography, micro-CT, histology); assay type: in vivo, mouse; conditions: 10 nmol/kg s.c. daily for 4 weeks
Description: as §2
Thoracic vertebrae were removed and dissected free of soft tissue. […]
Thoracic vertebrae were fixed overnight in 70% ethanol and analyzed by micro-CT with a SkyScan 1072 scanner and associated analysis software (SkyScan, Antwerp, Belgium) as described. […]
Total collagen was detected in paraffin sections using a modified method of Lopez-De Leon and Rojkind. […]
as §3

[8] = tested on: OVX mice (osteoporosis model); experiment: Osteoblastic bone formation parameters of vertebrae in OVX mice; assay type: in vivo, mouse; conditions: 10 nmol/kg s.c. daily for 4 weeks, compared to vehicle-treated sham-operated mice, n = 6
Description: as §2
Lumbar vertebrae or tibiae were removed and fixed in PLP fixative (2% paraformaldehyde containing 0.075 M lysine and 0.01 M sodium periodate solution) overnight at 4°C and processed histologically as described. Lumbar vertebrae were decalcified in ethylene-diamine tetraacetic acid (EDTA) glycerol solution for 5–7 days at 4°C. Decalcified samples were dehydrated and embedded in paraffin after which 5 µm sections were cut on a rotary microtome. […]
Double calcein labeling was performed by intraperitoneal injection of mice with 10 µg calcein/g body weight (C-0875, Sigma-Aldrich Corp., St. Louis, MO) at 10 and 3 day before death. […] Serial sections were cut, and the freshly cut surface of each section was viewed and imaged using fluorescence microscopy. The double calcein-labeled width of bone was measured using Northern Eclipse image analysis software version 6.0 (Empix Imaging, Inc., Mississauga, Canada), and the mineral apposition rate (MAR) was calculated as the interlabel width/labeling period.
as §3

[9] = tested on: renal calcium transporters (calbindin-D28K, calbindin-D9K, NCX1, TRPV5); experiment: Western blot of renal calcium transporters in OVX mice; assay type: in vivo, mouse; conditions: 10 nmol/kg s.c. daily for 4 weeks, relative to vehicle-treated sham-operated mice, n = 6
Description: as §2, with “At the end of experiments, all mice were sacrificed by exsanguination under chloral hydrate anesthesia and blood were collected for serum calcium, phosphorus and ALP analyses, bones and kidneys were then removed for the analyses described below.” left out
Purified hPTHrP1-34 and 1-84 and proteins extracted from kidney were quantitated by a kit (Bio-Rad, Mississauga, Ontario, Canada). […] Bands were visualized using ECL chemiluminescence (Amersham) and quantitated by Scion Image Beta 4.02 (Scion Corporation, NIH).

[10] = tested on: placental calcium transport; conditions: cited from earlier work
Excerpt: It supports the concept that the mid-molecule region of PTHrP is functionally important in placental calcium transport. […] However, it is unclear whether there are some differences between PTHrP1-34 and 1-84 on renal calcium reabsorption and on bone formation. To answer this que ...

[11] = compared to vehicle-treated sham-operated mice
[12] = vertebrae, micro-CT and histology, compared to vehicle-treated OVX mice (hPTHrP1-84 also to hPTHrP1-34-treated), n = 6

Substance	gene expression levels of Cbfa-1, ALP, type I collagen (Col I) and osteocalcin (OCN) [1]	circulating t1/2 ([2]; ELISA, read from the figure (Fig. 6e), approximate)	time at which plasma PTHrP levels declined to baseline levels ([2]; ELISA, sampling 15 and 30 min, 1, 2, 4, 6 h, n = 6)	plasma PTHrP levels at 15 min after the administration ([2]; single injection, PTHrP(1-34) EIA kit (ELISA), mean ± SEM, n = 6)	colony formation and osteogenic cell differentiation and mineralization [3]	ratios of RANKL/OPG mRNA levels ([4]; among vehicle-treated, hPTHrP1-34-treated and hPTHrP 1-84-treated OVX mice)	osteoblastic gene expression levels of Cbfa1, ALP [4, 11]	ratios of RANKL/OPG mRNA levels [4, 11]	TRAP positive osteoclast number [5]	TRAP positive osteoclast surface [5]	Serum mineral ion and ALP levels [6]	radiolucency in vertebrae ([7]; radiography, compared to vehicle-treated sham-operated mice)	cortical thickness [7, 12]	trabecular bone volume [7, 12]	ALP positive area [8]	MAR (mineral apposition rate) [8]	osteoblast number [8]	osteoid volume [8]	protein levels of calbindin-D28K, calbindin-D9K, NCX1 and TRPV5 in the kidney [9]	placental calcium transfer [10]
hPTHrP1-34: recombinant human parathyroid hormone related protein 1-34, expressed as GST fusion in E. coli BL21 and cleaved by thrombin	upregulated significantly	approximately 45 mins	2 h	9 ± 0.7 pM	significant increase	no significant differences	slightly up-regulated	increased significantly	did not further increase	did not further increase	no significant differences	increased	not altered significantly	not altered significantly	increased	decreased	increased	not altered significantly	down-regulated	–
synthetic PTHrP1-34: synthetic PTHrP1-34 of the literature study on placental calcium transfer (ref 18)	–	–	–	–	–	–	–	–	–	–	–	–	–	–	–	–	–	–	–	no such effect
